Patent US6743630B2, “Method of preparing a protein array based on biochemical protein-protein interaction” (The Trustees of Columbia University in the City of New York, priority 2002, dated 2004)
No end group written: not given here.

System: Fas/FAP-1 binding
Assay: In vitro inhibition assay of Fas/FAP-1 binding (GST-Fas, 35S-labeled FAP-1)
Conditions: 15-mer peptide 1-1000 μM; human PAMP 1 mM; peptides acetylated
Procedure: 3A. Inhibition assay of Fas/FAP-1 binding using the C-terminal 15 amino acids of Fas. GST-Fas fusion protein (191-355) was used for in vitro binding assay (lane 1, 3-10). GST-Fas fusion protein (191-320) (lane 2) and 1 mM human PAMP (N-terminal 20 amino acids of proadrenomedullin, M. W. 2460.9) (lane 3) were used as negative controls. The concentrations of the C-terminal 15 amino acids added were 1 (lane 4), 3 (lane 5), 10 (lane 6), 30 (lane 7), 100 (lane 8), 300 (lane 9), and 1000 μM (lane 10).
HFAP-10 cDNA (Sato, et al. 1995) subcloned into the Bluescript vector pSK-II (Stratagene) was in vitro-translated from an internal methionine codon in the presence of ^35S-L-methionine using a coupled in vitro transcription/translation system (Promega, TNT lysate) and T7 RNA polymerase. […] After washing vigorously 4 times in the same buffer, associated proteins were recovered with the glutathione-Sepharose beads by centrifugation, eluted into boiling Laemmli buffer, and analyzed by SDS-PAGE and fluorography.
In vitro-translated [^35S ]HFAP-1 was purified with a NAP-5 column (Pharmacia) and incubated with 3 μM of GST-fusion proteins for 16 hours at 4° C. After washing 4 times in the binding buffer, radioactivity incorporation was determined in a β counter. […]

Sequence of Fas/FAP-1 binding (Q12923 1361-1456 limits assumed): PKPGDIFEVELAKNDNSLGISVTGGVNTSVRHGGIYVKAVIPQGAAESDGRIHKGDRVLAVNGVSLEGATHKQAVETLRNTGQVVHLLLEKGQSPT

Substance	inhibitory effect on binding of in vitro-translated FAP-1 to GST-Fas
human PAMP peptide: N-terminal 20 amino acids of proadrenomedullin, negative control (ARLDVASEFRKKWNKWALSR; ends and bridges not checked; UniProt P35318 22-41, looked up)	no effect
synthetic 15 amino acids of Fas: synthetic peptide of the C-terminal 15 amino acids of Fas (Ac-DSENSNFRNEIQSLV)	dramatically reduced and dependent on the concentration
